Data: US20220009918A1, “Chemical Compounds” (GlaxoSmithKline Intellectual Property Development Limited, priority 2018, published 2022)

What follows are compounds tested against T1, human H-PGDS (Homo sapiens, UniProt O60760) (assay: H-PGDS RapidFire high throughput mass spectrometry assay). Details: inhibition of conversion of PGH2 to PGD2 by H-PGDS; mean pIC50; read-out: Potency Range (mean pIC50) (converted).
T1 construct: Full length human H-PGDS cDNA (Invitrogen Ultimate ORF IOH13026) was amplified by PCR; 6-His (N); TEV protease cleavage site (N); made in house; host or cells: E. coli BL21 (DE3*) for H-PGDS; Sf9 insect cells (baculovirus) for COX-2
T1 sequence (O60760 whole entry): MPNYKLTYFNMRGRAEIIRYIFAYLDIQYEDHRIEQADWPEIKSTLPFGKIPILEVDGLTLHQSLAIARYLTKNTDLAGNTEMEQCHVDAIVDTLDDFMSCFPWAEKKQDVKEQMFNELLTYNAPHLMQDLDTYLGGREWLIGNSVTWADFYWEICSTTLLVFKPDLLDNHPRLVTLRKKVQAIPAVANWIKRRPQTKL
Assay type: biochemical
Summary of the method: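 Full-length His-tagged human H-PGDS from E. coli converted PGH2, generated in situ (~10 μM burst) from arachidonic acid by FLAG-tagged human COX-2 (Sf9-expressed). PGD2 and PGF2α (substrate surrogate) were measured by RapidFire SPE-triple quadrupole MS. Percent conversion was calculated, and inhibition was taken as reduced conversion.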
`COc1cccc(-c2ncc(C(=O)N[C@H]3CCNC3=O)s2)c1` [Example 68, (S)-2-(3-Methoxyphenyl)-N-(2-oxopyrrolidin-3-yl)thiazole-5-carboxamide] was tested, and the IC50 was 0.0102 to 0.1 µM.
`O=C(N[C@H]1CCNC1=O)c1cnc(-c2cccc(O)c2)s1` [Example 69, (S)-2-(3-Hydroxyphenyl)-N-(2-oxopyrrolidin-3-yl)thiazole-5-carboxamide] gave an IC50 of 0.0102 to 0.1 µM.
For `C[C@]1(NC(=O)c2cnc(-c3cc(F)cc(Cl)c3)s2)CCNC1=O` [Example 72, (S)-2-(3-Chloro-5-fluorophenyl)-N-(3-methyl-2-oxopyrrolidin-3-yl)thiazole-5-carboxamide], the IC50 was 0.0102 to 0.1 µM.
For `C[C@@]1(NC(=O)c2cnc(-c3cc(F)cc(Cl)c3)s2)CCNC1=O` [Example 73, (R)-2-(3-Chloro-5-fluorophenyl)-N-(3-methyl-2-oxopyrrolidin-3-yl)thiazole-5-carboxamide], the IC50 was 0.102 to 1 µM.
`C[C@H]1CNC(=O)[C@H]1NC(=O)c1cnc(-c2cc(F)cc(Cl)c2)s1` [Example 75, 2-(3-Chloro-5-fluorophenyl)-N-((3S,4S)-4-methyl-2-oxopyrrolidin-3-yl)thiazole-5-carboxamide] was tested, and the IC50 was 0.0102 to 0.1 µM.
`C[C@@H]1CNC(=O)[C@@H]1NC(=O)c1cnc(-c2cc(F)cc(Cl)c2)s1` [Example 76, 2-(3-Chloro-5-fluorophenyl)-N-((3R,4R)-4-methyl-2-oxopyrrolidin-3-yl)thiazole-5-carboxamide] gave an IC50 of 1.02 to 10 µM.
In the case of `O=C(N[C@H]1CCNC1=S)c1cnc(-c2cc(F)cc(Cl)c2)s1` [Example 77, (S)-2-(3-Chloro-5-fluorophenyl)-N-(2-thioxopyrrolidin-3-yl)thiazole-5-carboxamide], the IC50 is reported as 0.00102 to 0.01 µM.
`O=C(N[C@H]1CCNC1=[Se])c1cnc(-c2cc(F)cc(Cl)c2)s1` [Example 78, (S)-2-(3-chloro-5-fluorophenyl)-N-(2-selenoxopyrrolidin-3-yl)thiazole-5-carboxamide] gave an IC50 of 0.00102 to 0.01 µM.
Work on `O=C(NN1CCNC1=O)c1cnc(-c2cc(F)cc(Cl)c2)s1` [Example 79, 2-(3-Chloro-5-fluorophenyl)-N-(2-oxoimidazolidin-1-yl)thiazole-5-carboxamide] yielded an IC50 of 0.0102 to 0.1 µM.
With `O=C1NCC[C@@H]1NC(=S)c1cnc(-c2cc(F)cc(Cl)c2)s1` [Example 80, (S)-2-(3-chloro-5-fluorophenyl)-N-(2-oxopyrrolidin-3-yl)thiazole-5-carbothioamide] the IC50 was 0.00102 to 0.01 µM.
Compound `C[C@H]1C[C@H](NC(=O)c2cnc(-c3cc(F)cc(Cl)c3)s2)C(=O)N1` [Example 81, 2-(3-Chloro-5-fluorophenyl)-N-((3S,5S)-5-methyl-2-oxopyrrolidin-3-yl)thiazole-5-carboxamide] has an IC50 of 0.00102 to 0.01 µM.
Compound `CC1(C)C[C@@H](NC(=O)c2cnc(-c3cc(F)cc(Cl)c3)s2)C(=S)N1` [Example 84, (R)-2-(3-Chloro-5-fluorophenyl)-N-(5,5-dimethyl-2-thioxopyrrolidin-3-yl)thiazole-5-carboxamide] has an IC50 of 0.102 to 1 µM.
With `CC1(C)C[C@H](NC(=O)c2cnc(-c3cc(F)cc(Cl)c3)s2)C(=S)N1` [Example 85, (S)-2-(3-Chloro-5-fluorophenyl)-N-(5,5-dimethyl-2-thioxopyrrolidin-3-yl)thiazole-5-carboxamide] the IC50 was 0.00102 to 0.01 µM.
For `O=C1NCC[C@@H]1NS(=O)(=O)c1cnc(-c2ccccc2)s1` [Example 86, (S)-N-(2-Oxopyrrolidin-3-yl)-2-phenylthiazole-5-sulfonamide], the IC50 was over 10 µM.
